One assay deals with Sox2 protein. Description: Sox2 protein expression in transfected NHLF (pcDNA3.1 empty vector or pcDNA3.1-SOX2), western blotting (2-3). Format: cell-based, human. The conditions noted are these: TGF-β1 5 ng/ml 12 h. How it is done:
The pcDNA3.1 empty vector and the pcDNA3.1-SOX2 plasmid (i.e., pcDNA3.1 vector containing SOX2 gene) were respectively transfected into Normal Human lung fibroblasts (NHLF) by the Fugene HD cell transfection reagent. The cells were screened to obtain NHLFs containing the pcDNA3.1 empty vector or the pcDNA3.1-SOX2 plasmid.
NHLFs containing the pcDNA3.1 empty vector were then seeded into 6 cm culture dishes at a density of 2×10^5 cells/dish, comprising a control group and three experimental groups (4 dishes in total). The cells were cultured until the next day, and then the mediums were removed. Each group was respectively treated under the following conditions to conduct follow-up experiments: • (1) Control group I: cells were cultured in a FGM-2 medium containing 1% serum for 36 hours; • (2) Group A: cells were cultured in a FGM-2 medium containing 1% serum and TGF-β1 (5 ng/ml) for 36 hours; • (3) Group B: cells were firstly cultured in a FGM-2 medium containing 1% serum and TGF-β1 (5 ng/ml) for 12 hours, and then compound (1) was added into the medium to provide a final concentration of 15 μg/ml; thereafter, the cells were cultured for another 24 hours; and • (4) Group C: cells were firstly cultured in a FGM-2 medium containing 1% serum and TGF-β1 (5 ng/ml) for 12 hours, and then compound (1) was added into the medium to provide a final concentration of 30 μg/ml; thereafter, the cells were cultured for another 24 hours.
In another aspect, NHLFs containing the pcDNA3.1-SOX2 plasmid were seeded into the 6 cm culture dishes at a density of 2×10^5 cells/dish, comprising a control group and three experimental groups (4 dishes in total). The cells were cultured until the next day, and then the mediums were removed. Each group was respectively treated under the following conditions to conduct follow-up experiments: • (1) Control group II: cells were cultured in a FGM-2 medium containing 1% serum for 36 hours; • (2) Group D: cells were cultured in a FGM-2 medium containing 1% serum and TGF-β1 (5 ng/ml) for 36 hours; • (3) Group E: cells were firstly cultured in a FGM-2 medium containing 1% serum and TGF-β1 (5 ng/ml) for 12 hours, and then the compound (1) was added into the medium to provide a final concentration of 15 μg/ml; thereafter, the cells were cultured for another 24 hours; and • (4) Group F: cells were firstly cultured in a FGM-2 medium containing 1% serum and TGF-β1 (5 ng/ml) for 12 hours, and then the compound (1) was added into the medium to provide a final concentration of 30 μg/ml; thereafter, the cells were cultured for another 24 hours.
Thereafter, the proteins in the cells of each group were extracted, and the expressions of Sox2 protein, TGF-β protein and type I collagen in the NHLF cells of each group were measured with western blotting. […]
On the technique in general: Immunoblotting shows a protein as a band on a membrane.

For a further assay, the system named is TGF-β protein. Description: TGF-β protein expression in NHLF, western blotting (3-1). The class given is cell-based, human. The protocol:
Normal Human lung fibroblasts (NHLF) were seeded into 6 cm culture dishes at a density of 2×10^5 cells/dish, comprising a control group and six experimental groups (7 dishes in total). The cells were cultured until the next day, and then the mediums were removed. Each group was respectively treated under the following conditions to conduct follow-up experiments: • (1) Control group: cells were cultured in a FGM-2 medium containing 10% serum for 36 hours; • (2) Group i: cells were cultured in a FGM-2 medium containing 1% serum for 36 hours; • (3) Group ii: cells were firstly cultured in a FGM-2 medium containing 1% serum for 12 hours, and then compound (1) was added into the medium to provide a final concentration of 15 μg/ml; thereafter, the cells were cultured for another 24 hours; • (4) Group iii: cells were firstly cultured in a FGM-2 medium containing 1% serum for 12 hours, and then compound (1) was added into the medium to provide a final concentration of 25 μg/ml; thereafter, the cells were cultured for another 24 hours; • (5) Group iv: cells were cultured in a FGM-2 medium containing 1% serum and TGF-β1 (5 ng/ml) for 36 hours; • (6) Group v: cells were firstly cultured in a FGM-2 medium containing 1% serum and TGF-β1 (5 ng/ml) for 12 hours, and then compound (1) was added into the medium to provide a final concentration of 15 μg/ml; thereafter, the cells were cultured for another 24 hours; and • (7) Group vi: cells were firstly cultured in a FGM-2 medium containing 1% serum and TGF-β1 (5 ng/ml) for 12 hours, and then compound (1) was added into the medium to provide a final concentration of 25 μg/ml; thereafter, the cells were cultured for another 24 hours.
Thereafter, the proteins in the cells of each group were extracted, and the expressions of BMP-7 protein, TGF-β protein and α-SMA protein in the NHLF cells of each group were measured with western blotting, wherein the β-actin served as the internal control. The results of the control group served as the basis for calculating the relative expression levels of the other groups.

From patent US20170333391A1, “METHOD FOR DELAYING THE ONSET OF PULMONARY FIBROSIS OR TREATING PULMONARY FIBROSIS” (EVERFRONT BIOTECH INC., priority 2016, published 2017) come the findings set out here.

For the molecule `CCCC=C1OC(=O)c2ccccc21` [compound (1)], the “Relative expression level (fold) Sox2 protein” value in the assay with Sox2 protein (Group B: NHLF with pcDNA3.1 empty vector, then compound (1) 15 μg/ml 24 h, control group I = 1, TGF-β1-only group A = 1.55) turned out to be 1.81 fold; in the assay on Sox2 protein (Group C: NHLF with pcDNA3.1 empty vector, then compound (1) 30 μg/ml 24 h, control group I = 1, TGF-β1-only group A = 1.55) it was 1.04 fold; in the assay with Sox2 protein (Group E: NHLF with pcDNA3.1-SOX2 plasmid, then compound (1) 15 μg/ml 24 h, control group II = 1, TGF-β1-only group D = 0.88), 1.03 fold; with Sox2 protein (Group F: NHLF with pcDNA3.1-SOX2 plasmid, then compound (1) 30 μg/ml 24 h, control group II = 1, TGF-β1-only group D = 0.88) it was 1.02 fold. For the same molecule, the “Relative expression level (fold) TGF-β protein” value with TGF-β protein (Group ii: 1% serum 12 h, then compound (1) 15 μg/ml 24 h, no TGF-β1, 10% serum control = 1, 1% serum group i = 0.66) is 0.63 fold; in the assay with TGF-β protein (Group iii: 1% serum 12 h, then compound (1) 25 μg/ml 24 h, no TGF-β1, 10% serum control = 1, 1% serum group i = 0.66) it was 0.52 fold; in the assay with TGF-β protein (Group v: 1% serum + TGF-β1 5 ng/ml 12 h, then compound (1) 15 μg/ml 24 h, 10% serum control = 1, TGF-β1-only group iv = 0.80) it was 0.79 fold; in the assay with TGF-β protein (Group vi: 1% serum + TGF-β1 5 ng/ml 12 h, then compound (1) 25 μg/ml 24 h, 10% serum control = 1, TGF-β1-only group iv = 0.80), 0.59 fold.
